Laboratory results taken from article PMC11904221 (EMBO Molecular Medicine, 2025).
In brackets after ≈: the same amount, converted by molar mass. Several values for one entry are separate records, joined by “and”; a condition that tells them apart may be missing. Identical values can stand only once. Like-named read-outs stand apart in the source and are kept apart here. Where a SMILES comes first, the peptide text is derived from it.

Key:
apelin receptor [1] = target: T1, apelin receptor (Homo sapiens, UniProt P35414); assay: Radioligand binding assay; parameters: purchased Euroscreen FAST-020B; details: competition with [125I]-(Pyr1)-apelin-13, apelin receptor membrane extracts 2 μg protein/well, 96-well plates
T1 sequence (P35414 1-380): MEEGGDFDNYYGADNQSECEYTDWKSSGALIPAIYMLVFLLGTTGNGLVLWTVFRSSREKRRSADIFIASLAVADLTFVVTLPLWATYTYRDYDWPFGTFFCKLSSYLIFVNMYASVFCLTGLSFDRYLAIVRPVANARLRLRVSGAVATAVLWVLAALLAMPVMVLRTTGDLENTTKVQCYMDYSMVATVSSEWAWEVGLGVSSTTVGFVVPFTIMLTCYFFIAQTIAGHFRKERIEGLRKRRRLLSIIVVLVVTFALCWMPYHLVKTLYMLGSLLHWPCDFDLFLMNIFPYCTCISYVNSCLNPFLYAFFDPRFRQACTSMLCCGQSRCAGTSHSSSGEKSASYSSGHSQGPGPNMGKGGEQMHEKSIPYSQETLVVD
Description: (§1) Scale bar, 50 µm. (C) Radioligand binding assay. […] Data are representative of three independent experiments and data shown as the mean ± s.e.m. […] The signals were sorted from high (red) to low (blue) intensity/phosphorylation. […] Source data are available online for this figure.
Dose-response curves were established and the estimated IC50 values were calculated for each compound.

in vivo = details: both sexes, BALB/c, mouse, ip
Description: Pharmacological profile of APLN-DM peptide
Maximal Tolerated Dose (MTD) study of APLN -DM in mice
Six groups comprising six Balb/C mice per group (3 males and 3 females) were assigned to the study. In each gender, one control group (1 Male (M)/1 female (F)) received the reference solution (vehicle) and 5 […]
mg/kg (4M/4F), 2000 mg/kg (5M/5F) and 1500 mg/kg (6M/6F). APLN-DM peptide was administrated via intra-peritoneal (IP) single injection at day 1 followed by observation during 14 days. During the study, mortality, morbidity, general clinical signs and bod y weight were recorded. In the end of the study pathology and organ necropsy examination were performed. Thereby, APLN-DM peptide and vehicle were administered to mice according to Table-1 and their effects were analyzed according to Table-2.
Each test item dose was administrated to 3 female and 3 male mice. The administration was performed IP at a dose volume of 10 ml/kg. Dosing was performed according to Figure-1 and each increase in dose pending on the outcome of the previous dose (results of clinical signs). The lag time between the increasing doses was approximately 48h.
No. (n=) Mouse# Treatment Dose Level administration administratio […]
Table-1. Study design -1. […], […]
Study Day* Procedure Body Weight Clinical Mortality & Organ
Sign Morbidity observation
2-14 - Twice weekly Once -
15 Termination √ √ Gross pathology
Figure 1 - Decisional tree for successive dosing for MTD determination […]
At study termination, body weight (Figure 2 and Figure 3) and gross pathology abnormalities were analyzed in all animals. Main pathological finding were blood clots in intestine and chest cavity. Treatment-related clinical adverse side effects (purple tail, lethargy, decreased motor activity) were observed also in groups treated either with 200, 500, 1000 and 1500 mg/kg. The tail recovered a normal color after 1 hour in all dose groups. […]
abnormalities were detected in all male and female animals from these groups at the scheduled termination […]

apelin receptor [2] = target: T1, apelin receptor; assay: Plasmon waveguide resonance (PWR) ligand binding; parameters: expressed in transfected cells; host or cells: HEK cells overexpressing apelin receptor (membrane fragments); details: HEK-apelin receptor cell membrane fragments on polylysine-treated sensor, 22 °C, n = 3
Source text: (§2) Red arrows indicate the direction of vessel formation. […] All data are representative of three independent experiments. […] The two Furin cleavage sites are shown. […] (S–U) Plasmon waveguide resonance (PWR). […] Source data are available online for this figure.

in vitro [3] = assay: in vitro
Furin = Furin (Homo sapiens, UniProt P09958)
Chain of Furin (P09958 108-794, species assumed): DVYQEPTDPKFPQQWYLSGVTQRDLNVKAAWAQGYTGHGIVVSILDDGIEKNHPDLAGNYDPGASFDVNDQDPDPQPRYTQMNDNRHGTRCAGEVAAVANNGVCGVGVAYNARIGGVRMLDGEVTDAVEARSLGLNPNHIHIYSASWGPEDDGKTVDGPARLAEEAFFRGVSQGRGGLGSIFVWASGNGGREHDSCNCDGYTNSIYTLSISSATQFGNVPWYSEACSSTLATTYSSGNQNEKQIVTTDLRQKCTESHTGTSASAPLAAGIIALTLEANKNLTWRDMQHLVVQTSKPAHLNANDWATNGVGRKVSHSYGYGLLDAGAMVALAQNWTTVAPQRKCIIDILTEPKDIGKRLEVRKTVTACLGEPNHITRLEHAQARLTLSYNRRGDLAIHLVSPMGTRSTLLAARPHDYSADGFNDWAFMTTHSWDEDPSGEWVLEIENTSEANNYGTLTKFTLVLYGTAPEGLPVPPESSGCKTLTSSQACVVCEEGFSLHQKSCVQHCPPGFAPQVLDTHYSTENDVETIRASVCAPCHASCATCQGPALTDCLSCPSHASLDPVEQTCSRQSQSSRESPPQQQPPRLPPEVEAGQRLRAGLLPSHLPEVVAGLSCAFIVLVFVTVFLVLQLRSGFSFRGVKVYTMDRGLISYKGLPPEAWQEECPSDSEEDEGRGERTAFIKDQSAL

in vitro [4] = assay: in vitro; remark: listed apart in the source
in vitro [5] = details: human
[6] = Pharmacokinetic profile in mice, LC/MS; type: in vivo, mouse; details: Balb/C mice plasma, LC/MS, estimated from the 5 and 10 min samples
Description: Pharmacokinetic profile of APLN-DM in mice
The aim of the current study was to evaluate pharmacokinetic properties of APLN-DM peptide administrated intravenously (IV) or intraperitoneously (IP) in Balb/C mice. […]
for the IP group). Development of quantification method was performed using liquid chromatography coupled to mass spectrometry (LC/MS).
Results: Samples obtained in vivo were analyzed according to quantification-developed method and the peptide was detectable until 15 minutes after administration. Analysis allowed determining that APLN-DM […]
All animals were divided to three groups of 27 animals, one of 12 animals and one of 3 animals (vehicle) and will receive the corresponding test item according to Table 1. Each animal was weighed and administered at the appropriate volume.
Concentration ROA Blood Individual animal numbers
Group No. Treatment Dose Collect
Table 11 - Group allocation
Development of analytic method
Standard range from 0.5 to 100 µM was prepared and analysed for each fragmented ion as previously […]
Standard curves obtained for each ion are represented in Figure 6.
Figure 8: Standard curves obtained by quantification of each fragmented ion The best linearity was obtained by quantifying the fragmented ion 785 (z=5).
Quantification of APLN-DM in samples
Summary of analytical method development:
Quantification method was performed according to previous work. In summary, samples were analysed with a LC-MS triple quadripole system (ESI QqQ). The chromatographic system was a UPLC activity (Waters) coupled to a mass spectrometer TSQ Quantum Ultra (Thermo) equipped with triple quadripole analyser and electrospray ionisation (ESI) system. The selected column was Kinetex F5 […] 50x2.1 mm (Phenomenex). The analysis was made by quantifying fragmented ion z=5 (m/z=785) in samples compared […]
quantitation was previously determined to be 0.5 µM. Samples were analysed after protein precipitation as […]
In vivo phase samples analysis
As the stability of peptide is low, even in frozen plasma, it was decided to re-run the in vivo phase for the highest dose and to use freshly prepared samples.
26 samples were used for analysis.
Only samples taken 5 and 10 minutes after peptide administration presented detectable concentrations (see
Table 9). While 15 min results were on the level of accuracy (linearity threshold values). At a later time […]
estimated based on the 5 and 10 min measurements.
Sample ID Area Calculated amount

[7] = liver microsomes
[8] = pH 7.4
CT-26 tumors = type: in vivo; details: Appendix Fig. S13
Source text: (§3) Tumor growth, apoptosis, proliferation, and/or the angiogenic index of the developed tumors were first evaluated.
(§4) (A) Scheme and workflow of apelin-dm preclinic studies. […] (B–D) Error bars indicate s.e.m. center values indicate mean (Mann–Whitney U test). […] The percentage of relative staining intensity corresponding to CD31, Ki67, and BIM expression in CT-26 and MC-38 tumors of treated mice are shown in (I–N). Scale bar, 100 µm. Data represent mean ± s.e.m. of 3–4 independent experiments. P values were calculated with the Student t test in GraphPad. […] Quantification of tumor area (P) and vascularized area (Q) relative to control untreated CAMs (n = 3 CAM per group) assigned 100%. Data represent mean ± s.e.m. P values were calculated with the Student t test in GraphPad. […] (S, T) The average blood flow expressed in % relative to blood flow measured in […] (S) and MDA-MB231 (T) developed tumors. Data represent mean ± s.e.m. of 3–4 independent experiments. P values were calculated with the Student t test in GraphPad. Source data are available online for this figure.
Additional experiments involved injecting 1 × 10^6 control CT-26/MC-38/MDA-MB231 cells into BALB/c, C57BL/6, or nude mice, respectively. […] LASER Doppler imaging assessed total blood flow, with FlowR® Hemodynamics visualization used for analysis. Results were expressed as % relative to pre-treatment tumor blood flow.

CT-26 cells on CAM = assay: CAM implanted with CT-26 cells, tumor and vascularized area; type: in vivo, chick; details: individual values
Source text: as §3, §4
Fertilized eggs were allowed to mature ex ovo. […] Immunohistology in toto was performed for vessel staining.

retinal vasculature = assay: Retina angiogenesis assay; type: in vivo, mouse; parameters: unit not given here; details: P5 mice, isolectin B4, individual values; control 74-89
Source text: as §2
Angiogenesis is a complex intercellular process involving the organization of various cells.
Following the treatment period, the mice were humanely euthanized, and their eyes were harvested. […] The retinas were carefully isolated and fixed in 4% PFA for 2 h at room temperature or overnight at 4 °C. After fixation, the retinas were blocked and permeabilized in a solution containing 1% bovine serum albumin (BSA) and 0.5% Triton X-100 overnight at 4 °C. Subsequently, the retinas were washed three times with a buffer solution composed of 0.5% Triton X-100, 1 mM CaCl2, 1 mM MgCl2, and 1 mM MnCl2 in PBS, pH 6.8. The retinas were then incubated with FITC-labeled Isolectin B4 (1:1000; Vector Laboratories) to label blood vessels. Following staining, the retinas were embedded in Tissue-Tek OCT Compound, and 10-μm cryosections were cut. Confocal immunofluorescence images were acquired with an inverted Nikon C2si Eclipse Ti-S microscope and analyzed using NIS-ElementsAR software (Nikon Instruments Europe B.V.).

CT-26 and MC-38 tumors = assay: Subcutaneous tumor growth of cells stably expressing APLN or APLN-DM; type: in vivo, mouse
CT-26 and MC-38 cells = assay: Soft agar, proliferation and apoptosis of cells expressing APLN or APLN-DM; details: cancer cells expressing the construct
Description: For the apoptosis assay, tumor cells were grown to 70% confluency, washed repeatedly to remove serum, and then incubated for the indicated time periods in serum-free media. Cells were washed and stained with FITC-labeled Annexin V using the FITC Annexin V Apoptosis Detection Kit I (BD Pharmingen^TM), according to the manufacturer’s instructions.
P values by two-tailed unpaired t-test.

[9] = system: chick chorioallantoic membrane; assay: Chick chorioallantoic membrane (CAM) angiogenesis assay; details: 48 h, 100 nM each, individual CAM, n = 8; control 99-131
Description: Fertilized eggs were allowed to mature ex ovo. […] Immunohistology in toto was performed for vessel staining. Images of CAM vessels were acquired using a Zeiss Axiophot microscope.

AKT and ERK = assay: Phosphorylation of AKT and ERK in HUVEC, SMC, CT-26, HEK 293; type: cell-based; details: HUVECs, SMCs, CT-26 cells, HEK-293 cells
Source text: as §1

CSCC[C@H](NC(=O)[C@@H]1CCCN1C(=O)CNC(=O)[C@H](CCCCN)NC(=O)[C@H](Cc1c[nH]cn1)NC(=O)[C@H](CO)NC(=O)[C@H](CC(C)C)NC(=O)[C@H](CCCNC(=N)N)NC(=O)[C@@H]1CCCN1C(=O)[C@H](CCCNC(=N)N)NC(=O)[C@H](CCC(N)=O)NC(=O)[C@H](CO)NC(=O)[C@H](CO)NC(=O)[C@H](Cc1ccccc1)NC(=O)[C@H](CCCCN)NC(=O)[C@H](CO)NC(=O)[C@H](CO)NC(=O)CNC(=O)CNC(=O)[C@H](CCC(N)=O)NC(=O)[C@H](Cc1c[nH]c2ccccc12)NC(=O)[C@@H]1CCCN1C(=O)CNC(=O)[C@@H]1CCCN1C(=O)CNC(=O)[C@H](CC(N)=O)NC(=O)[C@H](CCCNC(=N)N)NC(=O)[C@H](CO)NC(=O)CNC(=O)[C@H](CCCNC(=N)N)NC(=O)[C@@H]1CCCN1C(=O)[C@H](CCC(N)=O)NC(=O)[C@@H](NC(=O)[C@@H](N)CC(C)C)C(C)C)C(=O)N1CCC[C@H]1C(=O)N[C@@H](Cc1ccccc1)C(=O)O [apelin-dm] (H-LVQPRGSRNGPGPWQGGSSKFSSQRPRLSHKGPMPF-OH)
IC50 (apelin receptor [1]): 0.45 nM and 0.47 nM
MTD at 336 h (in vivo): > 1000 mg/kg
Kd (apelin receptor [2]): ~0.03 nM
% Protein bound, Mean (in vitro [3]): 26%
cleavage by Furin (Furin): more stable and not cleaved
% Protein bound, Mean (in vitro [4]): 54%
fraction unbound (in vitro [4]; plasma): ~0.5
Half-life, Mean (in vitro [5]): 18.68 h
half-life (in vitro [5]; plasma): > 18 h
half-life in vivo in mice [6]: 0.333 h
Intrinsic clearance in liver microsomes [7]: < 115.5 µL/min/mg
Solubility, Mean [8]: 187.3 µM (≈ 734 µg/mL)
toxicity in treated tumor-bearing mice (CT-26 tumors): no obvious toxicity in treated mice was observed

APLN: wild-type APLN stably expressed in CT-26 or MC-38 cells by lentiviral vector (QRPRLSHKGPMPF)
CAM CT-26 quantification (Fig5P file) (CT-26 cells on CAM; same data as sheet 5N): 168 and 189 and 190
CAM CT-26 quantification (sheet 5N) (CT-26 cells on CAM; tumor or vascularized area not given): 168 and 189 and 190
retina vascularization (retinal vasculature): 84.9099 and 86.8403 and 90.0489 and 88.5208 and 85.3624 and 89.8292 and 92.0113 and 89.1254 and 85.4258 and 94.4967 and 90.4185 and 89.0824 and 95.2514 and 99.1254 and 85.2991 and 91.6992 and 83.1786 and 91.7618 and 93.6101
tumor volume (CT-26 and MC-38 tumors; expressing cells, Rag2/γc, day 8, control 60.45, in mm³ (unit assumed)): 180.48
tumor volume (CT-26 and MC-38 tumors; expressing cells, Rag2/γc, day 11, control 142, in mm³ (unit assumed)): 571
tumor volume (CT-26 and MC-38 tumors; expressing cells, Rag2/γc, day 13, control 583.25, in mm³ (unit assumed)): 974.2
tumor volume (CT-26 and MC-38 tumors; expressing cells, Rag2/γc, day 15, control 887.52, in mm³ (unit assumed)): 1295.1
tumor volume (CT-26 and MC-38 tumors; expressing cells, Rag2/γc, day 18, control 1263.6, in mm³ (unit assumed)): 2221
tumor volume (CT-26 and MC-38 tumors; expressing cells, Rag2/γc, day 20, control 2040.04, in mm³ (unit assumed)): 2868
tumor volume (CT-26 and MC-38 tumors; tumor cells stably expressing the construct, Rag2/γc mice (Fig 2C), day 7, control 38.75): 39.12
anchorage-independent growth (CT-26 and MC-38 cells): twofold increased
CAM vessel density [9]: 120 and 252 and 210 and 201 and 189 and 155 and 145 and 136

apelin
ERK and AKT activation (AKT and ERK): activated ERK and AKT
